Calls of active or inactive are those of the source. No cut-off for these calls is given here.
Legend:
[1] = test system: Fibroblast; experiment: Protection against chemotherapy-induced apoptosis in human fibroblast assessed as decrease in caspase-3/7 level preincubated for 16 hrs followed by SN-38 addition measured after 32 hrs; assay type: functional, cell-based; details: dose 4.6-10 µM, time 48.0 hrs
[2] = test system: Bone marrow cell; experiment: Downregulation of cPARP expression level in bone marrow cells of C57BL/6 mouse at 2.4 mg/kg, iv administered every 8 hrs measured for 16 hrs by immunohistochemical analysis; assay type: functional, organism-based
[3] = test system: Bone marrow cell; experiment: Upregulation of p21 expression level in bone marrow cells of C57BL/6 mouse at 2.4 mg/kg, iv administered every 8 hrs measured for 16 hrs by immunohistochemical analysis; assay type: functional, organism-based
[4] = Clearance in rat at 2.5 mg/kg by LC-MS/MS analysis; assay type: ADME, organism-based; details: in vivo
[5] = Plasma protein binding in rat at 250 uM; assay type: ADME, cell-free; details: read-out: PPB (converted)
[6] = Clearance in cynomolgous monkey at 10 mg/kg by LC-MS/MS analysis; assay type: ADME, organism-based, Macaca fascicularis; details: cynomolgus monkey, in vivo
[7] = test system: Fibroblast; experiment: Protection against chemotherapy-induced apoptosis in human fibroblast assessed as decrease in caspase-3/7 level preincubated for 16 hrs followed by gemcitabine.HCl addition measured after 32 hrs; assay type: functional, cell-based; details: dose 4.6-10 µM, time 48.0 hrs
[8] = test system: Fibroblast; experiment: Protection against chemotherapy-induced apoptosis in human fibroblast assessed as decrease in caspase-3/7 level preincubated for 16 hrs followed by paclitaxel addition measured after 32 hrs; assay type: functional, cell-based; details: dose 4.6-10 µM, time 48.0 hrs
[9] = AUC (0 to 24 hrs) in tumor of athymic nu/nu mouse xenografted with human SJSA-1 cells at 25 mg/kg, iv measured for 24 hrs by LC-MS-MS analysis; assay type: ADME, organism-based, Neoplasm; set-up: dose 25 mg/kg, time 24 hrs, route iv; details: in vivo
[10] = test system: Fibroblast; experiment: Protection against chemotherapy-induced apoptosis in human fibroblast assessed as decrease in caspase-3/7 level preincubated for 16 hrs followed by doxorubicin addition measured after 32 hrs; assay type: functional, cell-based; details: dose 4.6-10 µM, time 48.0 hrs
[11] = test system: Fibroblast; experiment: Protection against apoptosis in human fibroblast assessed as decrease in chemotherapy-induced caspase-3/7 level preincubated for 16 hrs followed by etoposide addition measured after 32 hrs; assay type: functional, cell-based; details: dose 4.6-10 µM, time 48.0 hrs
[12] = Half life in rat at 2.5 mg/kg by LC-MS/MS analysis; assay type: ADME, organism-based; details: in vivo
[13] = Half life in mouse at 5 mg/kg by LC-MS/MS analysis; assay type: ADME, organism-based; details: in vivo
[14] = test system: CTG-0449; experiment: Antitumor activity against patient-derived human CTG-0449 cells xenografted in athymic nu/nu mouse model of AML assessed as tumor growth inhibition administered intravenously twice a week measured for 20 days; assay type: functional, cell-based; details: dose 10-20 mg/kg, route iv, time 20.0 day
[15] = test system: MCF7; experiment: Antitumor activity against human MCF7 cells xenografted in athymic nude BALB/c mouse assessed as upregulation of p21 protein level at 20 mg/kg, iv by immunohistochemical analysis; assay type: functional, organism-based; details: time <= 48.0 hrs, TDE = time-dependent effect
[16] = Plasma protein binding in rat at 2 to 50 uM; assay type: ADME, cell-free; details: dose 2-50 µM, read-out: PPB (converted)

SMILES: CC(=O)N[C@@H](CC(C)C)C(=O)N[C@H](C(=O)N[C@@H](Cc1ccccc1)C(=O)N[C@]1(C)CCCCCC/C=C/CCC[C@@](C)(C(=O)N[C@@H](C)C(=O)N[C@@H](C)C(=O)N[C@@H](C)C(=O)N[C@@H](C)C(=O)N[C@@H](C)C(=O)N[C@H](C)C(N)=O)NC(=O)[C@H](CC(C)C)NC(=O)[C@H](CCC(N)=O)NC(=O)[C@H](C)NC(=O)[C@H](Cc2c[nH]c3ccccc23)NC(=O)[C@H](Cc2ccc(O)cc2)NC(=O)[C@H](CCC(=O)O)NC1=O)[C@@H](C)O
- Activity [1]: Dose-Dependent Effect
- Activity [2]: Active
- Activity [3]: Active
- clearance [4]: 0.467 mL/min/kg
- fraction unbound at 250 µM [5]: 0.02
- clearance [6]: 0.127 mL/min/kg
- Activity [7]: Dose-Dependent Effect
- Activity [8]: Dose-Dependent Effect
- AUC [9]: 1 µg·h/g
- Activity [10]: Dose-Dependent Effect
- Activity [11]: Dose-Dependent Effect
- half-life [12]: 1.4 h
- half-life [13]: 2.2 h
- Activity [14]: Dose-Dependent Effect
- Activity [15]: Tde
- fraction unbound at up to 50 µM [16]: 0.08

— ChEMBL document CHEMBL5346962, “Discovery of Sulanemadlin (ALRN-6924), the First Cell-Permeating, Stabilized α-Helical Peptide in Clinical Development” (J Med Chem, 2023)
